Legend:
[1] = tested on: MB453 cells; assay: alamarBlue MB453 cell assay (antiproliferative/cytotoxicity); assay type: cell-based; settings: Homo sapiens; MDA MB 453 breast cancer cell line
Source text: (§1) The H460, MB453, U87, MCF7 and BT474 alamarBlue cell assays provide EC50 values indicative of the antiproliferative or cytotoxic effects of the compounds to respectively the H460 (human non small cell line cancer), MB-453 (breast cancer cell line), U87 (glioblastoma cell line), MCF7 (breast cancer cell line) and BT474 (breast cancer cell line). As known in the field, antiproliferative or cytotoxic effect against this cell lines would be expected to be indicative of activity in treating lung, breast and brain cancers. See R. Marone R et al. Biochim. Biophys. Acta. 2008 January; 1784(1):159-85. S. Yaguchi et al., J. Natl. Cancer Inst. 2006 Apr. 19; 98(8):545-56.
(§2) Method Type: Antiproliferative/Cytotoxicity
(§3) alamarBlue® is designed to provide a rapid and sensitive measure of cell proliferation and cytotoxicity in various human and animal cell lines. The assay is based on the reduction of alamarBlue in the reducing environment of living (metabolically active) cells. In the presence of added cytotoxic or antiproliferative compounds, the innate metabolic activity ceases.
(§4) AlamarBlue is soluble and stable in culture medium. Measurements are made fluorometrically by exciting at 530-560 nm and measuring emission at 590 nm. In reporting percent alamarBlue reduction by monitoring fluorescence, data are expressed as fluorescence emission intensity units as a function of time of incubation.
(§5) 3. Equipment • 96-well plates, flat bottom (Falcon, Cat. No.: 353072) • 96-well plates, U-shaped (Costar, Cat. No.: 3799) • CO2-Incubator • Microplate Reader, Spectramax Plus, Molecular Devices 4. Typical Procedure • Day 0: Seed 3000 BT-474 cells (IMDM/5% FCS, 1% NEAA, 1% Sodiumpyruvat) in 150 μl medium into a 96-well plate, flat bottom (include mediumblank). Incubate plates at 37° C. in a CO2 incubator overnight. • Day 1: Dilute compounds to a concentration 40 μM->1:3 in medium, 10 dilution steps, in 96-well plates. • Add 50 μl per well of each dilution (total volume per well 200 μl; final conc. of cpds: 10 μM->1:3). If required, test further dilutions. • All concentrations are tested in duplicates. • Controls: Cells w/o cpd. (+50 μl medium/DMSO). • Cells are incubated with compounds for 5-6 days. • Day 6 or 7: Add 25 μl of alamarBlue solution to each well and incubate for 8 hours at 37° C. Measure fluorescence by exciting at 530-560 nm and measuring emission at 590 nm. 5. Evaluation • Subtract average value for medium blank from sample readings • Calculate EC50 using GraphPad Prism (Fifty)

[2] = tested on: MCF7 cells; assay: alamarBlue MCF7 cell assay (antiproliferative/cytotoxicity); assay type: cell-based; settings: MCF7 human breast cancer cell line
Source text: as §1, §2, §3, §4, §5

[3] = tested on: H460 cells; assay: alamarBlue H460 cell assay (antiproliferative/cytotoxicity); assay type: cell-based; settings: NCI-H460; H460 human lung carcinoma cells
Source text: as §1, §2, §3, §4, §5

[4] = molecular target: PI3Kalpha (Homo sapiens (Human), UniProt P42336); assay: Inhibition of PI3Kalpha-induced PIP-2 phosphorylation (filter-binding assay); assay type: biochemical; settings: 33P-ATP, p85alpha/His-p110alpha, read-out: IC50 PI3Kα
PI3Kalpha, sequence (P42336 whole entry): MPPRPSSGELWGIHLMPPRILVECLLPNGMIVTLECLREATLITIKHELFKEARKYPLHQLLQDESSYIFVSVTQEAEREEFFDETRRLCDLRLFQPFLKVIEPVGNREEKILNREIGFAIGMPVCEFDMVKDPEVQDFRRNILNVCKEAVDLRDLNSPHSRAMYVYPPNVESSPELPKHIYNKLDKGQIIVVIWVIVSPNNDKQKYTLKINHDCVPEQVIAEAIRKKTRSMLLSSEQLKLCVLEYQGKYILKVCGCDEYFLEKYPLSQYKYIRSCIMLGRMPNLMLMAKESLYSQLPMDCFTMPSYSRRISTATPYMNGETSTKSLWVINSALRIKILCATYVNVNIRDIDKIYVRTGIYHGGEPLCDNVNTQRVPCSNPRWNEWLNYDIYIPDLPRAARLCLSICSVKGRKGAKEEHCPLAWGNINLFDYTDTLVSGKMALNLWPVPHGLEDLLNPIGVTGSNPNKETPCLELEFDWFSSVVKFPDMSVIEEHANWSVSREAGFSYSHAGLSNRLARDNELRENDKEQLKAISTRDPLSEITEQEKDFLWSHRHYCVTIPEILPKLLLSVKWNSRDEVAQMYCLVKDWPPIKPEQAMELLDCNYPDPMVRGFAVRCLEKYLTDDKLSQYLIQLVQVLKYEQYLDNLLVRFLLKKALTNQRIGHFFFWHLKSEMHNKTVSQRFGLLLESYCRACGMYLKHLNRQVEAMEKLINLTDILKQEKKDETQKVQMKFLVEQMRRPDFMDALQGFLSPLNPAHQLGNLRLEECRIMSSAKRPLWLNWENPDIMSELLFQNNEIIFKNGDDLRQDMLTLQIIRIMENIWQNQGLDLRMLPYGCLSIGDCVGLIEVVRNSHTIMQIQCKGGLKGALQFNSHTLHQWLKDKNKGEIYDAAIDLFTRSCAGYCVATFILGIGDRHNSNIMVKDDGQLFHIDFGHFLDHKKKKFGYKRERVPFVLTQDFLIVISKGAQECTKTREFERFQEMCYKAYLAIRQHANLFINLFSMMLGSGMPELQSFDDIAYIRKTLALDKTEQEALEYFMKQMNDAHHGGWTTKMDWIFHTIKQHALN
Source text: Inhibition of PI3Kalpha-Induced PIP-2 Phosphorylation
This PI3Kalpha assay provides an IC50 value indicative of the activity of the compounds to inhibit PI3 kinase alpha activity. Inhibition of PI3 kinase would be expected to be indicative of activity in treating conditions of excessive or anomalous cell proliferation, such as cancers. See also J. A. Engelman, Nature Reviews Cancer, 2009, 9, 550-562; A. Carnero, Expert Opin. Investig. Drugs, 2009, 18, 1265-1277 and P. Liu et al., Nature Reviews Drug Discovery, 2009, 8, 627-64.
Method Type: Filter-Binding-Assay
Aliquoted in desired amounts and stored at −80° C. Final assay concentration 25 ng/well • Phosphotyrosin PDGFRbeta-peptide H-CGG-pY-[…]-pY-VPMLDM-NH2 was synthesized by Jerini Peptide Technologies (JPT) and used in a final conc. of 1.7 μM (stock 100 μM prepared in Assay buffer with DTT, aliquoted in desired amounts and stored at −80° C.) • Cold ATP (from Sigma; A-7699), 100 μM stock solution in H2O, use 1 μM final concentration in assay • [33P]-ATP, 370 MBq/ml from Amersham (#AH9968), use 0.5 μCi/well (10 mCi/ml) • Clear 96-well plates from Greiner (#655 162) • Filter plates: Perkin Elmer UniFilter GF/B #6005177 • Microscint 0 (from Perkin Elmer, #6013611) 2. Assay Procedure
The substrate-containing lipid vesicles are dissolved to a concentration of 0.637 mg lipid blend/ml assay buffer (with BSA, freshly added) in 50 ml Falcon->keep on ice, followed by ultrasonication (pulse of 15 sec followed by a pause of 10 sec, 4×). Compounds are serially diluted in assay buffer+6% DMSO and […] of each dilution is added per well of a 96-well plate (compounds are tested in duplicates) and mixed with 30 μl of the lipid vesicles containing PDGFR-Peptide ([…]) and PI3K alpha (25 ng/well final). The mixture is then incubated for 20 minutes at room temperature. Subsequently, 20 μl of assay buffer containing […] cold ATP and 0.5 μCi/20 μl 33P-ATP are added. The plates are then incubated at room temperature for 120 minutes (shaking with 300 rpm).
The reaction mix is transferred onto filter plates using “filtermate harvester” from Packard: filter plates are rinsed with PBS, then the reaction mix is filtered onto the filter plate, washed 5 times with PBS and are allowed to dry for 30-60 minutes at 50° C.
The plate bottom is sealed with Perkin Elmer white adhesive foil and 25 μl/well Microscint( ) are added, the top is covered with transparent adhesive foil and the plate is measured with Wallac Trilux 1450 Microbeta Counter.
As positive control serve wells containing vehicle controls (1% DMSO in assay buffer), showing non-inhibited kinase activity (high values). Wells containing assay buffer instead of enzyme can serve as control for background activity (low values).
Calculate IC50 values using the Smiley program (based on GrapPad Prism)

[5] = tested on: BT474 cells; assay: alamarBlue BT474 cell assay (antiproliferative/cytotoxicity); assay type: cell-based; settings: BT-474 human breast cancer cell line
Source text: as §1, §2, §3, §4, §5

[6] = tested on: U87 cells; assay: U87 cell assay (antiproliferative/cytotoxicity); assay type: cell-based; settings: U-87MG human glioblastoma cells
Source text: as §1, §2, §3, §4, §5

SMILES	EC50 [1] [nM]	EC50 [2] [nM]	EC50 [3] [nM]	IC50 [4] [nM]	EC50 [5] [nM]	EC50 [6] [nM]
COc1ncc(C#Cc2c(C)ncnc2N2CCOCC2)cc1NS(=O)(=O)c1ccccc1 [Example I-1, N-[2-Methoxy-5-(4-methyl-6-morpholin-4-yl-pyrimidin-5-ylethynyl)-pyridin-3-yl]-benzenesulfonamide]	47	4	19	0.4	14	55
Cc1ncnc(N2CCOCC2)c1C#Cc1cncc(NS(C)(=O)=O)c1 [Example I-24, N-[5-(4-Methyl-6-morpholin-4-yl-pyrimidin-5-ylethynyl)-pyridin-3-yl]-methanesulfonamide]	–	1110	–	4	2360	–
CCc1nc(N)nc(N2CCC(OC)CC2)c1C#Cc1cnc(C)c(NS(C)(=O)=O)c1 [Example I-34, N-{5-[2-Amino-4-ethyl-6-(4-methoxy-piperidin-1-yl)-pyrimidin-5-ylethynyl]-2-methyl-pyridin-3-yl}-methanesulfonamide]	–	74	–	2	433	–
CCc1ncnc(N2CCC(OC)CC2)c1C#Cc1cnc(C)c(NS(C)(=O)=O)c1 [Example I-45, N-{5-[4-Ethyl-6-(4-methoxy-piperidin-1-yl)-pyrimidin-5-ylethynyl]-2-methyl-pyridin-3-yl}-methanesulfonamide]	–	62	141	4	284	–
CCc1ncnc(N2CCC(O)CC2)c1C#Cc1cnc(C)c(NS(C)(=O)=O)c1 [Example I-46, N-{5-[4-Ethyl-6-(4-hydroxy-piperidin-1-yl)-pyrimidin-5-ylethynyl]-2-methyl-pyridin-3-yl}-methanesulfonamide]	–	397	880	–	1270	–
Cc1ncc(C#Cc2c(C)ncnc2N2CCOCC2)cc1NS(=O)(=O)c1cnn(C)c1 [Example I-51, 1-Methyl-1H-pyrazole-4-sulfonic acid [2-methyl-5-(4-methyl-6-morpholin-4-yl-pyrimidin-5-ylethynyl)-pyridin-3-yl]-amide]	199	12	196	–	311	315
COc1ncc(C#Cc2c(C)ncnc2N2CCOCC2)cc1NS(C)(=O)=O [Example I-81, N-[2-methoxy-5-(4-methyl-6-morpholin-4-yl-pyrimidin-5-ylethynyl)-pyridin-3-yl]-methylsulfonamide]	233	–	181	0.64	76	510
COc1ncc(C#Cc2c(C)ncnc2N2CCOCC2)cc1NS(=O)(=O)c1ccccc1OC(F)(F)F [Example I-82, 2-Trifluoromethoxy-N-[2-methoxy-5-(4-methyl-6-morpholin-4-yl-pyrimidin-5-ylethynyl)-pyridin-3-yl]-benzenesulfonamide]	27	–	24	0.5	25	50
COc1ncc(C#Cc2c(C)ncnc2N2CCOCC2)cc1NS(=O)(=O)c1ccccc1C(F)(F)F [Example I-83, 2-Trifluoromethyl-N-[2-methoxy-5-(4-methyl-6-morpholin-4-yl-pyrimidin-5-ylethynyl)-pyridin-3-yl]-benzenesulfonamide]	7	–	6	0.44	6	18
COc1ncc(C#Cc2c(C)ncnc2N2CCOCC2)cc1NS(=O)(=O)c1ccc(Cl)cc1 [Example I-84, 4-Chloro-N-[2-methoxy-5-(4-methyl-6-morpholin-4-yl-pyrimidin-5-ylethynyl)-pyridin-3-yl]-benzenesulfonamide]	49	–	41	0.3	48	24
COc1ncc(C#Cc2c(C)ncnc2N2CCOCC2)cc1NS(=O)(=O)c1ccc(Cl)s1 [Example I-85, 5-Chloro-N-[2-methoxy-5-(4-methyl-6-morpholin-4-yl-pyrimidin-5-ylethynyl)-pyridin-3-yl]-thiophene-2-sulfonamide]	40	–	47	0.38	34	64
COc1ncc(C#Cc2c(C)ncnc2N2CCOCC2)cc1NS(=O)(=O)c1cccs1 [Example I-86, N-[2-Methoxy-5-(4-methyl-6-morpholin-4-yl-pyrimidin-5-ylethynyl)-pyridin-3-yl]-thiophene-2-sulfonamide]	14	–	10	0.39	12	42
COc1ncc(C#Cc2c(C)ncnc2N2CCOCC2)cc1NS(=O)(=O)c1ccnn1C [Example I-87, N-[2-methoxy-5-[2-(4-methyl-6-morpholin-4-ylpyrimidin-5-yl)ethynyl]pyridin-3-yl]-2-methylpyrazole-3-sulfonamide]	15	–	30	0.45	20	54
COc1ncc(C#Cc2c(C)ncnc2N2CCOCC2)cc1NS(=O)(=O)c1cnn(C)c1 [Example I-88, N-[2-methoxy-5-[2-(4-methyl-6-morpholin-4-ylpyrimidin-5-yl)ethynyl]pyridin-3-yl]-1-methylpyrazole-4-sulfonamide]	8	–	21	0.55	62	27
COc1ncc(C#Cc2c(C)ncnc2N2CCOCC2)cc1NS(=O)(=O)c1ccc(C)o1 [Example I-89, N-[2-methoxy-5-[2-(4-methyl-6-morpholin-4-ylpyrimidin-5-yl)ethynyl]pyridin-3-yl]-5-methylfuran-2-sulfonamide]	38	–	26	0.53	63	42
